Test results as given in patent US12723063B2, “GIPR-agonist compounds” (Eli Lilly and Company, priority 2019, dated 2026).
*1 amine or outer side, *2 acyl side, *3 side chain or, on linkers, in order; H or OH if unused. Where a SMILES comes first, the peptide text is derived from it. Side-chain parts run from the residue outwards. [ ]: non-standard residue; d: D form. The star is where a group is joined. C20 diacid = O=C(O)CCCCCCCCCCCCCCCCCCC(=O)*; C18 diacid = O=C(O)CCCCCCCCCCCCCCCCC(=O)*; αMePhe(2-F) = C[C@](N)(Cc1ccccc1F)C(=O)O; γGlu = O=C(O)[C@H](CCC(=O)[*:2])N[*:1]; 4Pal = N[C@@H](Cc1ccncc1)C(=O)O; αMeL = CC(C)C[C@](C)(N)C(=O)O; Iva = CC[C@](C)(N)C(=O)O; AEEA = NCCOCCOCC(=O)O; Aib = CC(C)(N)C(=O)O

Key:
human GcgR = biological target: T1, human GcgR (Homo sapiens, UniProt P47871); assay: [125I]-Glucagon binding, SPA with WGA beads, 0.1% bacitracin; details: geometric mean, read-out: hGcgR Ki
T1 construct: expressed in transfected cells; crude membranes
Protocol: Stably transfected cell lines are prepared by subcloning receptor cDNA into a pcDNA3 expression plasmid and transfected into human embryonic kidney (HEK) 293 (hGcgR and hGLP-1R) or Chinese Hamster Ovary (CHO) (hGIPR) cells followed by selection with Geneticin (hGLP-1R and hGIPR) or hygromycin B (hGcgR).
Two methods are used for the preparation of crude cell membranes.
Method 1: Frozen cell pellets are lysed on ice in hypotonic buffer containing 50 mM Tris HCl, pH 7.5, and Roche Complete™ Protease Inhibitors with EDTA. The cell suspension is disrupted using a glass Potter-Elvehjem homogenizer fitted with a Teflon® pestle for 25 strokes. The homogenate is centrifuged at 4° C. at 1100× g for 10 minutes. The supernatant is collected and stored on ice while the pellets are resuspended in homogenization buffer and rehomogenized as described above. The homogenate is centrifuged at 1100× g for 10 minutes. The second supernatant is combined with the first supernatant and centrifuged at 35000× g for 1 hour at 4° C. The resulting membrane pellet is resuspended in homogenization buffer containing protease inhibitors at approximately 1 to 3 mg/mL, quick frozen in liquid nitrogen and stored as aliquots in a −80° C. freezer until use.
Method 2: Frozen cell pellets are lysed on ice in hypotonic buffer containing 50 mM Tris HCl, pH 7.5, 1 mM MgCl2, Roche Complete™ EDTA-free Protease Inhibitors and 25 units/mL DNAse I (Invitrogen). The cell suspension is disrupted using a glass Potter-Elvehjem homogenizer fitted with a Teflon® pestle for 20 to 25 strokes. The homogenate is centrifuged at 4° C. at 1800× g for 15 minutes. The supernatant is collected and stored on ice while the pellets are resuspended in homogenization buffer (without DNAse I) and rehomogenized as described above. The homogenate is centrifuged at 1800× g for 15 minutes. The second supernatant is combined with the first supernatant and centrifuged an additional time at 1800× g for 15 minutes. The overall supernatant is then centrifuged at 25000× g for 30 minutes at 4° C. The resulting membrane pellet is resuspended in homogenization buffer (without DNAse I) containing protease inhibitors at approximately 1 to 3 mg/mL and stored as aliquots in a −80° C. freezer until use.
The human Geg receptor binding assays are performed using a Scintillation Proximity Assay (SPA) format with wheat germ agglutinin (WGA) beads (Perkin Elmer). The binding buffer contains 25 mM 4-(2-hydroxyethyl)-1-piperazineethanesulfonic acid (HEPES), pH 7.4, 2.5 mM CaCl2), 1 mM MgCl2, 0.1% (w/v) bacitracin (Research Products), 0.003% (w/v) Polyoxyethylenesorbitan monolaurate (TWEEN®-20), and Roche Complete™ Protease Inhibitors without EDTA. Peptides and Gcg are thawed and 3-fold serially diluted in 100% DMSO (10 point concentration response curves). Next, 5 μL serially diluted compound or DMSO is transferred into Corning® 3632 clear bottom assay plates containing 45 μL assay binding buffer or unlabeled Gcg control (non-specific binding or NSB, at 1 μM final). […] Plates are sealed and mixed on a plate shaker (setting 6) for 1 minute and read with a PerkinElmer Trilux MicroBeta® scintillation counter after 12 hours of incubation/settling time at room temperature.
Data are analyzed using four-parameter (curve maximum, curve minimum, IC50, Hill slope) nonlinear regression routines (Genedata Screener, version 12.0.4, Genedata AG, Basal, Switzerland). […] Values for Ki are reported as the geometric mean, with error expressed as the standard error of the mean (SEM) and n is equal to the number of independent replicates (determined in assays performed on different days). […] SEM is only calculated when […] or greater. Means are expressed as geometric means with the standard error of the mean (SEM) and the number of replicates (n) indicated in parentheses.

human GIPR = biological target: T2, human GIPR (Homo sapiens, UniProt P48546); assay: [125I]-GIP binding, SPA with WGA beads, 0.1% bacitracin; details: geometric mean, read-out: hGIPR Ki
T2 construct: expressed in transfected cells; crude membranes
T2 sequence (P48546 22-466): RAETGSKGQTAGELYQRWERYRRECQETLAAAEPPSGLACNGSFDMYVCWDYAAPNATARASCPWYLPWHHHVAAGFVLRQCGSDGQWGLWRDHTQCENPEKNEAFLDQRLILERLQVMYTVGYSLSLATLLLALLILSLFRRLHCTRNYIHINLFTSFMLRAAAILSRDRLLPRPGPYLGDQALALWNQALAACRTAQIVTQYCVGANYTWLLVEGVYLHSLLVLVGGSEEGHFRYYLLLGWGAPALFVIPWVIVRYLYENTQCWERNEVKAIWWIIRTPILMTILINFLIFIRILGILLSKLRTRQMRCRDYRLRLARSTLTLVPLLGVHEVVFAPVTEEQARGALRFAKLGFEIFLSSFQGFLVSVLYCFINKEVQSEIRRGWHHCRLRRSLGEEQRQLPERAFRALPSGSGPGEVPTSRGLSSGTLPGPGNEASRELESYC
In short: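 Ki values are geometric means (SEM, n independent days), derived from four-parameter nonlinear regression of IC50. Membranes came from hGIPR-expressing CHO cells.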

T1 sequence (P47871 26-477): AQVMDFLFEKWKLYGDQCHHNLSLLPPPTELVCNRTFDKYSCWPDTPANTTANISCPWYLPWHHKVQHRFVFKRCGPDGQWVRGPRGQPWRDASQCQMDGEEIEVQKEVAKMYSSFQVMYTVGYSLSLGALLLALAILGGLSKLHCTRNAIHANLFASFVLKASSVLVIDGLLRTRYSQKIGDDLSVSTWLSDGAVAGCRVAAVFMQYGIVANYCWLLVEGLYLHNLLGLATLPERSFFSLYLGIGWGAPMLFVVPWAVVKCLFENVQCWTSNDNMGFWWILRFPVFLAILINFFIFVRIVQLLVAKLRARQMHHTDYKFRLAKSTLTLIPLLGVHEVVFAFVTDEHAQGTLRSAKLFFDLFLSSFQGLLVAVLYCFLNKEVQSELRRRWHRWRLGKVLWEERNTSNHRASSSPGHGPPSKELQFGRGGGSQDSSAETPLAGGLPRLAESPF

| SMILES | Ki (human GcgR) [nM] | Ki (human GIPR) [nM] |
| --- | --- | --- |
| CC[C@H](C)[C@H](NC(=O)[C@H](CO)NC(=O)[C@H](Cc1ccc(O)cc1)NC(=O)[C@H](CC(=O)O)NC(=O)[C@H](CO)NC(=O)[C@@H](NC(=O)[C@](C)(Cc1ccccc1F)NC(=O)[C@@H](NC(=O)CNC(=O)[C@H](CCC(=O)O)NC(=O)C(C)(C)NC(=O)[C@@H](N)Cc1ccc(O)cc1)[C@@H](C)O)[C@@H](C)CC)C(=O)N[C@@H](CC(C)C)C(=O)N[C@@H](CC(C)C)C(=O)N[C@@H](CC(=O)O)C(=O)N[C@@H](CCCCN)C(=O)N[C@H](C(=O)N[C@@H](Cc1c[nH]cn1)C(=O)N[C@@H](CCC(N)=O)C(=O)NC(C)(C)C(=O)N[C@@H](CC(=O)O)C(=O)N[C@@H](Cc1ccccc1)C(=O)N[C@H](C(=O)N[C@@H](CCC(=O)O)C(=O)N[C@@H](Cc1ccncc1)C(=O)N[C@@H](CCCCNC(=O)COCCOCCNC(=O)COCCOCCNC(=O)CC[C@H](NC(=O)CCCCCCCCCCCCCCCCCCC(=O)O)C(=O)O)C(=O)N[C@@H](CC(C)C)C(=O)N[C@@H](CCC(=O)O)C(=O)N[C@@H](C)C(=O)NCC(=O)N1CCC[C@H]1C(=O)N[C@@H](CO)C(=O)N[C@@H](CO)C(=O)NCC(=O)N[C@@H](C)C(=O)N1CCC[C@H]1C(=O)N1CCC[C@H]1C(=O)N1CCC[C@H]1C(=O)N[C@@H](CO)C(N)=O)C(C)C)[C@@H](C)CC [Example 120] (H-Y[Aib]EGT[αMePhe(2-F)]ISDYSILLDKIHQ[Aib]DFVE[4Pal]K([AEEA-AEEA-γGlu-C20 diacid])LEAGPSSGAPPPS-NH2) | 575 | 0.171 |
| CC[C@H](C)[C@H](NC(=O)[C@H](CO)NC(=O)[C@H](Cc1ccc(O)cc1)NC(=O)[C@H](CC(=O)O)NC(=O)[C@H](CO)NC(=O)[C@@H](NC(=O)[C@H](Cc1ccccc1)NC(=O)[C@@H](NC(=O)CNC(=O)[C@H](CCC(=O)O)NC(=O)[C@@H](C)NC(=O)[C@@H](N)Cc1ccc(O)cc1)[C@@H](C)O)[C@@H](C)CC)C(=O)N[C@@H](CC(C)C)C(=O)N[C@@H](CC(C)C)C(=O)N[C@@H](CC(=O)O)C(=O)N[C@@H](CCCCN)C(=O)N[C@@H](CCCCNC(=O)COCCOCCNC(=O)COCCOCCNC(=O)CC[C@H](NC(=O)CCCCCCCCCCCCCCCCC(=O)O)C(=O)O)C(=O)N[C@@H](C)C(=O)N[C@@H](CCC(N)=O)C(=O)NC(C)(C)C(=O)N[C@@H](CCC(=O)O)C(=O)N[C@@H](Cc1ccccc1)C(=O)N[C@H](C(=O)N[C@@H](CC(N)=O)C(=O)N[C@@H](Cc1c[nH]c2ccccc12)C(=O)N[C@@H](CC(C)C)C(=O)N[C@@H](CC(C)C)C(=O)N[C@@H](CCC(=O)O)C(=O)NCC(=O)NCC(=O)N1CCC[C@H]1C(=O)N[C@@H](CO)C(=O)N[C@@H](CO)C(=O)NCC(=O)N[C@@H](C)C(=O)N1CCC[C@H]1C(=O)N1CCC[C@H]1C(=O)N1CCC[C@H]1C(=O)N[C@@H](CO)C(N)=O)C(C)C [Example 28] (H-Y[dA]EGTFISDYSILLDKK([AEEA-AEEA-γGlu-C18 diacid])AQ[Aib]EFVNWLLEGGPSSGAPPPS-NH2) | 86.8 | 0.0732 |
| CC[C@H](C)[C@H](NC(=O)[C@H](CO)NC(=O)[C@H](Cc1ccc(O)cc1)NC(=O)[C@H](CC(=O)O)NC(=O)[C@H](CO)NC(=O)[C@@H](NC(=O)[C@H](Cc1ccccc1)NC(=O)[C@@H](NC(=O)CNC(=O)[C@H](CCC(=O)O)NC(=O)[C@@H](C)NC(=O)[C@@H](N)Cc1ccc(O)cc1)[C@@H](C)O)[C@@H](C)CC)C(=O)N[C@@H](CC(C)C)C(=O)N[C@@H](CC(C)C)C(=O)N[C@@H](CC(=O)O)C(=O)N[C@@H](CCCCN)C(=O)N[C@@H](CCCCNC(=O)COCCOCCNC(=O)COCCOCCNC(=O)CC[C@H](NC(=O)CCCCCCCCCCCCCCCCCCC(=O)O)C(=O)O)C(=O)N[C@@H](Cc1c[nH]cn1)C(=O)N[C@@H](CCC(N)=O)C(=O)NC(C)(C)C(=O)N[C@@H](CC(=O)O)C(=O)N[C@@H](Cc1ccccc1)C(=O)N[C@H](C(=O)N[C@@H](CC(N)=O)C(=O)N[C@@H](Cc1c[nH]c2ccccc12)C(=O)N[C@@H](CC(C)C)C(=O)N[C@@H](CC(C)C)C(=O)N[C@@H](C)C(=O)N[C@@H](CCC(N)=O)C(=O)NCC(=O)N1CCC[C@H]1C(=O)N[C@@H](CO)C(=O)N[C@@H](CO)C(=O)NCC(=O)N[C@@H](C)C(=O)N1CCC[C@H]1C(=O)N1CCC[C@H]1C(=O)N1CCC[C@H]1C(=O)N[C@@H](CO)C(N)=O)C(C)C [Example 9] (H-Y[dA]EGTFISDYSILLDKK([AEEA-AEEA-γGlu-C20 diacid])HQ[Aib]DFVNWLLAQGPSSGAPPPS-NH2) | > 230 | 0.11 |
| CC[C@H](C)[C@H](NC(=O)[C@H](CO)NC(=O)[C@H](Cc1ccc(O)cc1)NC(=O)[C@H](CC(=O)O)NC(=O)[C@H](CO)NC(=O)[C@@H](NC(=O)[C@](C)(CC)NC(=O)[C@@H](NC(=O)CNC(=O)[C@H](CCC(=O)O)NC(=O)C(C)(C)NC(=O)[C@@H](N)Cc1ccc(O)cc1)[C@@H](C)O)[C@@H](C)CC)C(=O)N[C@@](C)(CC(C)C)C(=O)N[C@@H](CC(C)C)C(=O)N[C@@H](CC(=O)O)C(=O)N[C@@H](CCCCN)C(=O)N[C@@H](CCCCNC(=O)COCCOCCNC(=O)COCCOCCNC(=O)CC[C@H](NC(=O)CCCCCCCCCCCCCCCCCCC(=O)O)C(=O)O)C(=O)N[C@@H](Cc1c[nH]cn1)C(=O)N[C@@H](CCC(N)=O)C(=O)NC(C)(C)C(=O)N[C@@H](CC(=O)O)C(=O)N[C@@H](Cc1ccccc1)C(=O)N[C@H](C(=O)N[C@@H](CCC(=O)O)C(=O)N[C@@H](Cc1ccncc1)C(=O)N[C@@H](CC(C)C)C(=O)N[C@@H](CC(C)C)C(=O)N[C@@H](CCC(=O)O)C(=O)N[C@H](C(=O)NCC(=O)N1CCC[C@H]1C(=O)N[C@@H](CO)C(=O)N[C@@H](CO)C(=O)NCC(=O)N[C@@H](C)C(=O)N1CCC[C@H]1C(=O)N1CCC[C@H]1C(=O)N1CCC[C@H]1C(=O)N[C@@H](CO)C(N)=O)[C@@H](C)O)C(C)C [Example 75] (H-Y[Aib]EGT[Iva]ISDYSI[αMeL]LDKK([AEEA-AEEA-γGlu-C20 diacid])HQ[Aib]DFVE[4Pal]LLETGPSSGAPPPS-NH2) | > 958 | 0.0626 |
